Measured values from PubChem BioAssay AID330 (DTP/NCI, 2004).
Values joined by “and” are separate entries in the source; they are usually repeats but may differ in a detail not shown here. Equal values may be shown once. Toxic doses and inconclusive results are not listed. The calls were made as follows: active = survival T/C of 150% or more; inactive = T/C below 125% in these data.

Test system: P388 leukemia ip, CD2F1 mice, survival T/C
Assay: NCI In Vivo Anticancer Drug Screen. Data for tumor model P388 Leukemia (intraperitoneal) in CD2F1 (CDF1) mice
Conditions: endpoint: median survival time, higher = longer survival
How it was run: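 Mice carrying the transplanted tumor received test compound or vehicle. Survival was recorded in each group, and the value is the treated-group measurement divided by that of the vehicle-treated control group.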

[1] = dose: 60.0 mg/kg/injection, schedule: Q01DX005 (ip), vehicle: saline with Tween-80
[2] = dose: 120.0 mg/kg/injection, schedule: Q01DX005 (ip), vehicle: saline with Tween-80
[3] = dose: 240.0 mg/kg/injection, schedule: Q01DX005 (ip), vehicle: saline with Tween-80
[4] = dose: 50.0 mg/kg/injection, schedule: Q01DX005 (ip), vehicle: saline with Tween-80
[5] = dose: 60.0 mg/kg/injection, schedule: Q01DX005 (ip), vehicle: Klucel (hydroxypropylcellulose) (HPC)
[6] = dose: 120.0 mg/kg/injection, schedule: Q01DX005 (ip), vehicle: Klucel (hydroxypropylcellulose) (HPC)
[7] = dose: 50.0 mg/kg/injection, schedule: Q01DX009 (ip), vehicle: saline
[8] = dose: 100.0 mg/kg/injection, schedule: Q01DX009 (ip), vehicle: saline
[9] = dose: 12.5 mg/kg/injection, schedule: Q01DX009 (ip), vehicle: saline with Tween-80
[10] = dose: 25.0 mg/kg/injection, schedule: Q01DX009 (ip), vehicle: saline with Tween-80
[11] = dose: 100.0 mg/kg/injection, schedule: Q01DX009 (ip), vehicle: saline with Tween-80
[12] = dose: 50.0 mg/kg/injection, schedule: Q01DX009 (ip), vehicle: saline with Tween-80

Measured: T/C

O=C1CC2(CC=CCC23OCCO3)CC(CI)O1 (centres undefined)
inactive: dose: 2.5 mg/kg/injection, schedule: Q01DX005 (ip), vehicle: acid diluted with saline 106 % of control | dose: 5.0 mg/kg/injection, schedule: Q01DX005 (ip), vehicle: Klucel (hydroxypropylcellulose) (HPC) 100 % of control | dose: 5.0 mg/kg/injection, schedule: Q01DX005 (ip), vehicle: acid diluted with saline 111 % of control | dose: 10.0 mg/kg/injection, schedule: Q01DX005 (ip), vehicle: Klucel (hydroxypropylcellulose) (HPC) 100 % of control | dose: 10.0 mg/kg/injection, schedule: Q01DX005 (ip), vehicle: acid diluted with saline 93 % of control | dose: 20.0 mg/kg/injection, schedule: Q01DX005 (ip), vehicle: Klucel (hydroxypropylcellulose) (HPC) 98 % of control | dose: 20.0 mg/kg/injection, schedule: Q01DX005 (ip), vehicle: acid diluted with saline 100 % of control | dose: 40.0 mg/kg/injection, schedule: Q01DX005 (ip), vehicle: Klucel (hydroxypropylcellulose) (HPC) 103 % of control

CC1(C)N=C(N)N=C(N)N1c1cccc(OCCOc2ccccc2[N+](=O)[O-])c1
inactive: [1] 104 % of control | [2] 95 % of control | [3] 98 % of control

O=C1CSc2nc3c(Cl)cc(Cl)cc3c(=O)n21
inactive: [4] 108 % of control | dose: 100.0 mg/kg/injection, schedule: Q01DX005 (ip), vehicle: saline with Tween-80 100 % of control | dose: 200.0 mg/kg/injection, schedule: Q01DX005 (ip), vehicle: saline with Tween-80 105 % of control

CC(=O)N1CN(C)N(C)C1
inactive: [5] 98 % of control | [6] 91 % of control | dose: 240.0 mg/kg/injection, schedule: Q01DX005 (ip), vehicle: Klucel (hydroxypropylcellulose) (HPC) 100 % of control

O=c1[nH]c2cc(Cl)ccc2nc1/C=C(\O)c1ccc(O)cc1
inactive: [1] 102 % of control | [2] 95 % of control | [3] 95 % of control

COC(=O)CC1(C(=O)OC)C2CCCN2C2(C#N)c3ccccc3CCC12Br (centres undefined)
inactive: dose: 100.0 mg/kg/injection, schedule: Q01DX001 (ip), vehicle: saline 111 % of control | dose: 200.0 mg/kg/injection, schedule: Q01DX001 (ip), vehicle: saline 117 % of control | dose: 400.0 mg/kg/injection, schedule: Q01DX001 (ip), vehicle: saline 104 % of control

COc1ccc(C)cc1NC(=O)/N=C1/NC(=O)CS1
inactive: [7] 91 % of control | [8] 97 % of control | dose: 200.0 mg/kg/injection, schedule: Q01DX009 (ip), vehicle: saline 91 % of control

COC(=O)c1nc(=S)[nH]c(C(=O)OC)c1C(=O)c1ccc(OC)cc1
inactive: dose: 60.0 mg/kg/injection, schedule: Q01DX005 (ip), vehicle: saline 100 % of control | dose: 120.0 mg/kg/injection, schedule: Q01DX005 (ip), vehicle: saline 96 % of control | dose: 240.0 mg/kg/injection, schedule: Q01DX005 (ip), vehicle: saline 103 % of control

NC(=S)N/N=C/c1ccc(C(F)(F)F)cn1
inactive: dose: 3.8 mg/kg/injection, schedule: Q01DX009 (ip), vehicle: Klucel (hydroxypropylcellulose) (HPC) 96 % of control | dose: 5.8 mg/kg/injection, schedule: Q01DX009 (ip), vehicle: Klucel (hydroxypropylcellulose) (HPC) 93 % of control | dose: 6.0 mg/kg/injection, schedule: Q01DX009 (ip), vehicle: Klucel (hydroxypropylcellulose) (HPC) 107 % of control | dose: 8.8 mg/kg/injection, schedule: Q01DX009 (ip), vehicle: Klucel (hydroxypropylcellulose) (HPC) 93 % of control | dose: 8.9 mg/kg/injection, schedule: Q01DX009 (ip), vehicle: Klucel (hydroxypropylcellulose) (HPC) 114 % of control | dose: 13.3 mg/kg/injection, schedule: Q01DX009 (ip), vehicle: Klucel (hydroxypropylcellulose) (HPC) 114 % of control and 93 % of control | dose: 20.0 mg/kg/injection, schedule: Q01DX009 (ip), vehicle: Klucel (hydroxypropylcellulose) (HPC) 101 % of control and 121 % of control | dose: 30.0 mg/kg/injection, schedule: Q01DX009 (ip), vehicle: Klucel (hydroxypropylcellulose) (HPC) 114 % of control

O=C1C=CC(=O)C2=C1C1CCCC1C1CCCC21 (centres undefined)
inactive: dose: 25.0 mg/kg/injection, schedule: Q01DX009 (ip), vehicle: saline 123 % of control | [7] 105 % of control | [8] 113 % of control

Cc1c(O)ccc(N=O)c1O
inactive: dose: 6.25 mg/kg/injection, schedule: Q01DX005 (ip), vehicle: saline with Tween-80 98 % of control | dose: 12.5 mg/kg/injection, schedule: Q01DX005 (ip), vehicle: saline with Tween-80 94 % of control | dose: 25.0 mg/kg/injection, schedule: Q01DX005 (ip), vehicle: saline with Tween-80 90 % of control | [4] 93 % of control

C=C(C[P+](c1ccccc1)(c1ccccc1)c1ccccc1)C(=O)OCC
inactive: dose: 3.12 mg/kg/injection, schedule: Q01DX001 (ip), vehicle: saline 111 % of control | dose: 6.25 mg/kg/injection, schedule: Q01DX001 (ip), vehicle: saline 109 % of control | dose: 12.5 mg/kg/injection, schedule: Q01DX001 (ip), vehicle: saline 113 % of control | dose: 12.5 mg/kg/injection, schedule: Q01DX001 (ip), vehicle: suspension in saline 117 % of control

CCCCCCCCCCCCCCCCC(C(=O)O)C(O)(CC(=O)O)C(=O)O (centres undefined)
inactive: dose: 8.75 mg/kg/injection, schedule: Q01DX009 (ip), vehicle: Klucel (hydroxypropylcellulose) (HPC) 95 % of control | [9] 91 % of control | dose: 17.5 mg/kg/injection, schedule: Q01DX009 (ip), vehicle: Klucel (hydroxypropylcellulose) (HPC) 101 % of control | [10] 94 % of control | dose: 35.0 mg/kg/injection, schedule: Q01DX009 (ip), vehicle: Klucel (hydroxypropylcellulose) (HPC) 95 % of control | dose: 70.0 mg/kg/injection, schedule: Q01DX009 (ip), vehicle: Klucel (hydroxypropylcellulose) (HPC) 87 % of control | [11] 90 % of control

Nc1nc(N)c2nc(CNc3ccc(Cl)c(Cl)c3)cnc2n1
inactive: dose: 15.0 mg/kg/injection, schedule: Q01DX005 (ip), vehicle: saline with Tween-80 98 % of control | dose: 30.0 mg/kg/injection, schedule: Q01DX005 (ip), vehicle: saline with Tween-80 89 % of control

CSC(=S)n1nc(-c2ccccc2)c(N=Nc2ccc(Br)cc2)c1-c1ccccc1
inactive: dose: 100.0 mg/kg/injection, schedule: Q04DX002 (ip), vehicle: Klucel (hydroxypropylcellulose) (HPC) 100 % of control | dose: 200.0 mg/kg/injection, schedule: Q04DX002 (ip), vehicle: Klucel (hydroxypropylcellulose) (HPC) 97 % of control | dose: 400.0 mg/kg/injection, schedule: Q04DX002 (ip), vehicle: Klucel (hydroxypropylcellulose) (HPC) 101 % of control

NC(CS)C(=O)O (centres undefined) (tested in a mixture with another compound)
inactive: dose: 3.12 mg/kg/injection, schedule: Q01DX009 (ip), vehicle: suspension in saline 90 % of control | dose: 6.25 mg/kg/injection, schedule: Q01DX009 (ip), vehicle: suspension in saline 107 % of control | dose: 12.5 mg/kg/injection, schedule: Q01DX009 (ip), vehicle: suspension in saline 110 % of control | dose: 25.0 mg/kg/injection, schedule: Q01DX009 (ip), vehicle: suspension in saline 110 % of control

COc1cccc(N=Nc2c(N)nc(N)nc2N)c1
inactive: [9] 100 % of control | [10] 108 % of control | [12] 117 % of control

Clc1ccc(-n2ccc(=N/N=C/c3ccc(Cl)c(Cl)c3)cc2)cc1
inactive: dose: 25.0 mg/kg/injection, schedule: Q01DX001 (ip), vehicle: Klucel (hydroxypropylcellulose) (HPC) 100 % of control | dose: 50.0 mg/kg/injection, schedule: Q01DX001 (ip), vehicle: Klucel (hydroxypropylcellulose) (HPC) 100 % of control | dose: 100.0 mg/kg/injection, schedule: Q01DX001 (ip), vehicle: Klucel (hydroxypropylcellulose) (HPC) 100 % of control and 96 % of control

O=C1CCCCCCCCCC/C1=N/O
inactive: [12] 99 % of control | [11] 89 % of control | dose: 200.0 mg/kg/injection, schedule: Q01DX009 (ip), vehicle: saline with Tween-80 96 % of control

CC(=O)Nc1nc(CCl)cs1
inactive: dose: 25.0 mg/kg/injection, schedule: Q01DX009 (ip), vehicle: Klucel (hydroxypropylcellulose) (HPC) 100 % of control | dose: 50.0 mg/kg/injection, schedule: Q01DX009 (ip), vehicle: Klucel (hydroxypropylcellulose) (HPC) 102 % of control | dose: 100.0 mg/kg/injection, schedule: Q01DX009 (ip), vehicle: Klucel (hydroxypropylcellulose) (HPC) 103 % of control | dose: 200.0 mg/kg/injection, schedule: Q01DX009 (ip), vehicle: Klucel (hydroxypropylcellulose) (HPC) 110 % of control

CN(C)/C=C1\C(C(C)(C)C)=CC(C(C)(C)C)=C1N=O
inactive: [5] 105 % of control | [6] 104 % of control
